# According to US20230093099A1, “COMPOUNDS AND METHODS OF TREATING CANCERS” (CULLGEN (SHANGHAI), INC., priority 2019, published 2023):
# System: RS4;11 cells
# Test: Cell viability assay (CellTiter-Glo) in RS4;11 cells
# Type: cell-based
# Settings: Homo sapiens, 72 h; RS4;11 cells; cell viability, 3 days, CellTiter-Glo; read-out: IC50
# Summary of the method: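 RS4;11 cells seeded at 5000 per well, exposed for 3 days to 8- or 12-point 3-fold serial dilutions. Viability read by CellTiter-Glo luminescence; IC50 fitted by nonlinear least-squares regression.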
row,SMILES,IC50 [µM]
1,"Cc1cnc(Nc2ccc(N3CCN(C(=O)COCCOCCOCCOCCOCC(=O)N[C@H](C(=O)N4C[C@H](O)C[C@H]4C(=O)NCc4ccc(-c5scnc5C)cc4)C(C)(C)C)CC3)cc2)nc1Nc1cccc(S(=O)(=O)NC(C)(C)C)c1 [JA-036, (2S,4R)-1-((S)-2-(tert-Butyl)-20-(4-(4-((4-((3-(N-(tert-butyl)sulfamoyl)phenyl)amino)-5-methylpyrimidin-2-yl)amino)phenyl)piperazin-1-yl)-4,20-dioxo-6,9,12,15,18-pentaoxa-3-azaicosanoyl)-4-hydroxy-N-(4-(4-methylthiazol-5-yl)benzyl)pyrrolidine-2-carboxamide]",> 10
2,"Cc1cnc(Nc2ccc(N3CCN(CC(=O)NCCCCNc4ccc5c(c4)C(=O)N(C4CCC(=O)NC4=O)C5=O)CC3)cc2)nc1Nc1cccc(S(=O)(=O)NC(C)(C)C)c1 (stereo not shown) [JA-243, 2-(4-(4-((4-((3-(N-(tert-butyl)sulfamoyl)phenyl)amino)-5-methylpyrimidin-2-yl)amino)phenyl)piperazin-1-yl)-N-(4-((2-(2,6-dioxopiperidin-3-yl)-1,3-dioxoisoindolin-5-yl)amino)butyl)acetamide]",1.98
3,"Cc1cnc(Nc2ccc(N3CCN(CC(=O)NCCCCC(=O)N[C@H](C(=O)N4C[C@H](O)C[C@H]4C(=O)NCc4ccc(-c5scnc5C)cc4)C(C)(C)C)CC3)cc2)nc1Nc1cccc(S(=O)(=O)NC(C)(C)C)c1 [JA-100, (2S,4R)-1-((S)-2-(5-(2-(4-(4-((4-((3-(N-(tert-Butyl)sulfamoyl)phenyl)amino)-5-methylpyrimidin-2-yl)amino)phenyl)piperazin-1-yl)acetamido)pentanamido)-3,3-dimethylbutanoyl)-4-hydroxy-N-(4-(4-methylthiazol-5-yl)benzyl)pyrrolidine-2-carboxamide]",> 10
4,"O=C1CCC(N2C(=O)c3cccc(NCCC(=O)N4CCC(n5cc(-c6cnc7cccc(-c8cc(F)c(CN9CCOCC9)c(F)c8)c7n6)cn5)CC4)c3C2=O)C(=O)N1 (stereo not shown) [JA-004, 4-[[3-[4-[4-[8-[3,5-Difluoro-4-(morpholinomethyl)phenyl]quinoxalin-2-yl]pyrazol-1-yl]-1-piperidyl]-3-oxo-propyl]amino]-2-(2,6-dioxo-3-piperidyl)isoindoline-1,3-dione]",3.35
5,"Cc1cnc(Nc2ccc(N3CCN(C(=O)CCCNc4cccc5c4C(=O)N(C4CCC(=O)NC4=O)C5=O)CC3)cc2)nc1Nc1cccc(S(=O)(=O)NC(C)(C)C)c1 (stereo not shown) [JA-008, N-(tert-Butyl)-3-((2-((4-(4-(4-((2-(2,6-dioxopiperidin-3-yl)-1,3-dioxoisoindolin-4-yl)amino)butanoyl)piperazin-1-yl)phenyl)amino)-5-methylpyrimidin-4-yl)amino)benzenesulfonamide]",1.47
6,"Cc1cnc(Nc2ccc(N3CCN(CC(=O)NCCOCCOCCOCCOCCNc4ccc5c(c4)C(=O)N(C4CCC(=O)NC4=O)C5=O)CC3)cc2)nc1Nc1cccc(S(=O)(=O)NC(C)(C)C)c1 (stereo not shown) [JA-240, 2-(4-(4-((4-((3-(N-(tert-butyl)sulfamoyl)phenyl)amino)-5-methylpyrimidin-2-yl)amino)phenyl)piperazin-1-yl)-N-(14-((2-(2,6-dioxopiperidin-3-yl)-1,3-dioxoisoindolin-5-yl)amino)-3,6,9,12-tetraoxatetradecyl)acetamide]",0.638
7,"O=C(CN1CCC(n2cc(-c3cnc4cccc(-c5cc(F)c(CN6CCOCC6)c(F)c5)c4n3)cn2)CC1)NCCOCCOCCNc1ccc2c(c1)C(=O)N(C1CCC(=O)NC1=O)C2=O (stereo not shown) [JA-170, 2-(4-(4-(8-(3,5-Difluoro-4-(morpholinomethyl)phenyl)quinoxalin-2-yl)-1H-pyrazol-1-yl)piperidin-1-yl)-N-(2-(2-(2-((2-(2,6-dioxopiperidin-3-yl)-1,3-dioxoisoindolin-5-yl)amino)ethoxy)ethoxy)ethyl)acetamide]",> 10
